Data set [1] can be described thus: Plasma protein binding rate (PPB), mouse plasma. Type of data set: in vitro ADME, CD-1 mice. The conditions noted are these: 2 μM, dialysis 4 hours 37° C. How it is done: 796 μL of bank plasma from humans, SD rats and CD-1 mice (plasma purchased from BioreclamationIVT) were weighed, and the assay compound working solution or warfarin working solution was added so that the final concentration of the assay compound and warfarin in the plasma sample was 2 μM. The samples were mixed thoroughly. The final concentration of DMSO in the organic phase was 0.5%, 50 μL of plasma samples of the assay compound and warfarin were pipetted to a sample receiving plate, and the corresponding volume of the corresponding blank plasma or buffer was added immediately, so that the final volume in each sample well was 100 μL, wherein the volume ratio of plasma:dialysis buffer was 1:1. Stop solution was then added to these samples. These samples were used as T0 samples for determination of recovery and stability. The plasma samples of the assay compound and warfarin were added to the dosing end of each dialysis well, and blank dialysis buffer was added to the corresponding receiving end of the dialysis well. […] All samples were subjected to protein precipitation, and then analyzed by LC/MS/MS. Unbound rate (% Unbound), bound rate (% Bound), and recovery rate (% Recovery) of the compound were calculated using the following formulae: % Unbound=100*FC/TC, % Bond=100−% Unbound, and % Recovery=100*[…]/T0, […]

The next data set deals with T1, LIMK2 (Homo sapiens, UniProt P53671).
T1 construct: purchased Eurofins Pharma Discovery Service
Briefly: Kinase selectivity assay (Eurofins, 33P radiolabeled kinase activity): LIMK2. It is filed as biochemical. The conditions noted are these: WX009 1 μM, ATP 10 μM, read-out: Inhibition rate. As for the experimental part:
(§1) The purpose of this assay was to detect the in vitro inhibitory activity of WX009 on a variety of kinases. The kinases used in this assay included 413 kinases, and the activity detection method was provided by Eurofins Pharma Discovery Service A method of detecting ^33P radiolabeled kinase activity was used for the assay. The concentration of WX009 was 1 μM, and the concentration of ATP was 10 μM.

Data set [2] deals with All other kinases (411 of 413 kinases). Briefly: Kinase selectivity assay (Eurofins, 33P radiolabeled kinase activity): all other kinases. The settings on record: WX009 1 μM, ATP 10 μM. Type of data set: biochemical. How it is done:
as §1

Another data set deals with L929 cells. Kind of data set: In vitro activity assay of mouse RIP1: L929 cell TNFα/QVD-OPh-induced necroptosis. The conditions noted are these: TNF-α 50 ng/mL + Q-VD 50 μM, 24 h, CellTiter Glo. It is filed as cell-based. As for the experimental part: Assay Example 2: In Vitro Activity Assay of Mouse RIP1
L929 (purchased from ATCC, Item No.: CCL-1)
Instrument Microplate reader (Perkin Elmer, Envision) Formulation of Reagents L929 cell complete medium: EMEM+10% horse serum (volume ratio)+1% double antibiotics (volume ratio) Assay Step • 1. The cultured L929 cells were digested with trypsin, centrifuged, resuspended in complete culture medium, and then counted. The cell concentration was then diluted to 1×10^5/mL with complete culture medium. • 2. The cell suspension was added to a 96-well plate at 100 μL per well and incubated at 37° C. and 5% CO2 for 24 h. • 3. Different concentrations of assay compounds were added to each well, and dimethyl sulfoxide was added to the control group. The plate was incubated at 37° C. and 5% CO2 for 1 h. • 4. To each well were added TNF-α at a final concentration of 50 ng/mL and Q-VD at a final concentration of 50 μM, and the plate was incubated at 37° C. and 5% CO2 for 24 h. • 5. To each well was added 50 μL of CellTiter Glo […], and the plate was shaken in the dark for 10 min. • 6. The plate was read on the microplate reader.

A short description of data set [3]: In vitro Caco-2 cell permeability assay. Type of data set: in vitro ADME. The conditions noted are these: human, pH 7.4, Caco-2, 2 μM. As for the experimental part:
MEM (minimum essential medium) supplemented with 2 mM L-glutamine, 10% Fetal Bovine Serum (FBS), 100 U/mL penicillin-G and 100 μg/mL streptomycin was used for cell culture. The conditions for cell culture were 37±1° C., 5% CO2 and saturated humidity. When cells were grown to 80-90% confluency, trypsin (0.05%, w/v)/EDTA (0.02% w/v) digestion solution was added to digest the cells for seeding. The cells were seeded in BD Falcon's Transwell-96-well plate at a seeding density of 1×10^5 cells/cm^2. The cells were cultured in a carbon dioxide incubator for 22 days and then used for transport assay. […]
In this assay, liquid chromatography tandem mass spectrometry (LC/MS/MS) was used to semi-quantitatively analyze the peak area ratio of the assay compound and the control substances fenoterol, propranolol and digoxin to the internal standard in the starting solution, the receiving solution, and the supernatant of the dosing well. […]
Apparent permeability coefficient (Papp, cm/s), efflux rate and recovery rate were calculated using the following formulae.
The apparent permeability coefficient (Papp, cm/s) was calculated using the following formula: Papp=(dCr/dt)×Vr/(A×C0) […]
The efflux rate was calculated using the following formula: Efflux rate=Papp(BA)/Papp(AB) The recovery rate was calculated using the following formula: % recovery rate=100×[(Vr×Cr)+(Vd×Cd)]/(Vd×C0) […]
A general note: Caco-2 monolayers are a common model of the intestinal barrier.

We go through 1 compound from patent publication US12351587B2, “Bicyclic compound as RIP-1 kinase inhibitor and application thereof” (MEDSHINE DISCOVERY INC., priority 2019, dated 2025).

The term inhibition denotes the percentage by which the read-out fell short of the control. As a reminder, the IC50 is the concentration that inhibits the measured activity by half.

T1 sequence (P53671 whole entry, species assumed): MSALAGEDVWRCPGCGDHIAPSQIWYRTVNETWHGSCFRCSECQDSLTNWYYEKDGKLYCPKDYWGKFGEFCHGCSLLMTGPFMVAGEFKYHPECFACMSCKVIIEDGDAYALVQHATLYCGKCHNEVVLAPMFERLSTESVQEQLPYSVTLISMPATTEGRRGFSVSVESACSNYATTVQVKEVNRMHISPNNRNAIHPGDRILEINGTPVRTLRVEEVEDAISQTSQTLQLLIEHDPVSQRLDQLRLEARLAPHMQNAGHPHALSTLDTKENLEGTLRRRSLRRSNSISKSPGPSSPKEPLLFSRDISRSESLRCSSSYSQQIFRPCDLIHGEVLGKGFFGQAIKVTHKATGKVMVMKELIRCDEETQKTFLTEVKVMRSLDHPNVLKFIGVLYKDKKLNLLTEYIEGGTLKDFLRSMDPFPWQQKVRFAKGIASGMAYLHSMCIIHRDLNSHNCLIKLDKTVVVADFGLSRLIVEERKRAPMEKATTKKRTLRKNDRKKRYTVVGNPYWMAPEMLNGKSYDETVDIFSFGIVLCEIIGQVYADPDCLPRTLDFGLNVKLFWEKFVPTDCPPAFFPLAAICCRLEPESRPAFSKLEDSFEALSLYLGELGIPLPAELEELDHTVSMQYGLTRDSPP

`CN1C(=S)[C@@H](NC(=O)c2ncn(Cc3ccccc3)n2)COc2cccnc21` [WX009] had a PPB_Unbound in data set [1] of 7.0%. In addition, at LIMK2, the inhibition at 1 µM was in the range of 50 to 79%. In addition, the Inhibition rate in data set [2] is listed as less than 50%. Moreover, the IC50 in the data set with L929 cells was determined as 0.103 µM. In data set [3] (120 minutes, pH 7.40, read-out: Apparent permeability coefficient), the Papp at 120 min, 2 μM worked out at 18.4 ×10⁻⁶ cm/s. The efflux ratio at 120 min, 2 μM in data set [3] (Papp(BA)/Papp(AB), read-out: Efflux rate) worked out at 0.75.
